In US20160175249A1, “Liposomes Containing Oligopeptide Fragments of Myelin Basic Protein, a Pharmaceutical Composition and a Method for Treatment of Multiple Sclerosis” (LIPOXEN TECHNOLOGIES LIMITED, priority 2009, published 2016):

Assays:
[1] = biological target: polyclonal serum anti-MBP antibodies isolated from immunized DA rats; test: Surface plasmon resonance of autoAb binding to biotinylated MBP peptides and MBP; settings: SPR, BiaCore T-200, antibodies 50 μg/ml, immobilized peptide or MBP; for Kd: read-out: effective dissociation constant
Description: To quantify autoAb recognition of the identified MBP epitopes, and to confirm their sequence in vitro, the affinity of polyclonal serum anti-MBP antibodies isolated from immunized DA rats for biotinylated MBP peptides was determined by surface plasmon resonance (FIG. 2B). The effective dissociation constant of the full-length MBP protein (1.5×10^−8) was determined to be nanomolar, as were the dissociation constants for MBP encephalitogenic (9.6×10^−9) and C-terminal (8.4×10^−9) fragments, verifying their identity as major B cell epitopes.
All surface plasmon resonance measurements were performed on BiaCore T-200 apparatus (GE Healthcare, US). Biotinylated MBP peptides (50 μg/ml) (listed on FIG. 2) and MBP were immobilized on SA and CM-5 chips respectively. All procedures were performed according manufacture's recommendations. Flow rate of HBS-EP buffer was kept as 10 μl/min during all measurements. Antibodies (50 μg/ml) were tested on both chips with standard association/dissociation time 300/300 s. Dissociation constants were calculated using BiaCore T-200 Evaluation Software 1.0.

[2] = test system: experimental autoimmune encephalomyelitis (EAE) in DA rats; test: EAE in DA rats treated with MBP peptides in mannosylated SUV liposomes (Example 10); assay type: in vivo
Description: All animal studies were carried out in animal facilities of Assaf Harofeh Medical Center (Zerifin, Israel) using standard approved practices for animal care. Induction of EAE was performed in 8-9 weeks Dark Agouti (DA) female rats. Briefly, rats were injected intradermally at the base of the tail with a total volume of 200 μl of inoculum, containing […] of MBP(63-81) (ANASPEC), in saline mixed (1:1) with CFA, (incomplete Freund's adjuvant (IFA), Sigma), and 1 mg MT (strain H37 RA; Difco Laboratories, Detroit, Mich.). Animals developing symptoms of MS were included to the study. Rats were treated with different liposomes formulations (Table 3), copaxone, or placebo (vehicle) under similar conditions for 6 days. All formulations were administrated by one subcutaneous injection per day. Animals were followed up till day 28th post EAE induction. Clinical signs score was performed daily during all study periods. Score gradation was the following: 0—Normal 1—tail weakness, 2—hind leg weakness or paralysis, 3—hind leg paralysis, dragging hind limbs, 4—complete paralysis, unable to move, 5—death.
Liposomes were assembled from a mixture of egg phosphatidylcholine (PC) and one molar percent mannosylated DOG (ManDOG) (Durova OM, supra). Assembly of SUV liposomes was performed as illustrated in FIG. 3: (i) formation of irregular lipid layers during evaporation of organic solvent, followed by re-hydration leading to the multi-layer multilamellar vesicle (MLV) liposomes formation; (ii) high-pressure homogenization resulting in formation of empty SUV; (iii) freeze drying of SUV liposomes with peptides—at this stage peptides are located between collapsed SUV liposomes; and (iv) encapsulation of peptides during second re-hydration into the SUV liposomes with an average diameter of approximately 60-100 nm, containing 1.0% mannose residues on their surface. Four formulations were used for this study: each B cell epitope MBP peptide (MBP1, MBP2, and MBP3) individually and a 1:1:1 mixture (by mass) of all three peptides.
Small unilamellar vesicles (SUV) were prepared from egg phosphatidylcholine (PC) and mannosylated DOG (Espuelas S. et al., Synthesis of an amphiphilic tetraantennary mannosyl conjugate and incorporation into liposome carriers, 2003 Bioorg Med Chem Lett., August 4; 13(15):2557-60, the contents of which are hereby incorporated by reference in their entirety for all purposes) (1:100 molar ratio) by high pressure homogenization (Durova OM, supra). Briefly, lipid mixture (100 mg/ml) in CHCl3 was dried under vacuum, further re-suspended in Milli-Q water to a final lipid concentration 50 mg/ml, followed by high-pressure homogenization (20,000 psi). Resulting SUV were mixed with peptides (lipid to peptide ratio 330:1) together with excess sugar (lactose to lipid ratio 3:1) with subsequent freeze-drying. Following rehydration under controlled conditions, the resulting SUV liposomes were washed by centrifugation to remove non-incorporated materials. The washed pellets were re-suspended in PBS to the required dose volume. Peptide incorporation was estimated on the basis of reversed-phase HPLC using linear gradient of acetonitrile applied on C18 column. The z-average diameter and zeta potential of liposomes were measured on a Brookhaven ZetaPlus zetasizer at 25° C. by diluting […] of the dispersion to the required volume with 1 mM PBS or appropriate media.
To test the therapeutic potential of the four formulations, DA rates presenting with induced EAE were subcutaneously injected with one of the four mannosylated liposomal formulations, copaxone (positive control), free (un-encapsulated) MBPI peptide (negative control), and empty mannosylated liposomes (vehicle control; Table 3).
Treatment of each rat was initiated at the first sign of EAE clinical manifestation. […]

[3] = test system: EAE-induced DA rats; test: EAE-induced DA rat model, paralysis score and mortality (DA-EAE-28-01, Example 12); assay type: in vivo; settings: daily s.c. injection, 6 total
Description: Each of the seven formulations being evaluated was provided as a lyophilized powder and stored at 4° C. Rehydration of each daily group dose was done with water for injection according to Table 6. MBP peptide formulations were re-suspended in water for injection (Cure Medical) and copaxone (Teva LTD) was diluted with Saline to a final concentration of 150 μg/mL. Each subject animal was administered the test formulation for 6 consecutive days by subcutaneous injection.
9 week old Dark Agouti (DA) female rats (Harlan Laboratories, Inc.), weighing between 125 and 145 grams were used as the test subjects. The health status of the animals used in this study was examined on arrival. Only animals in good health were acclimatized to laboratory conditions and were used in the study. Animals were provided Protein Rodent Diet (Teklad) ad libitum and free access to drinking water. Animals were housed in a controlled environment at between 20° C. and 24° C. with a relative humidity of 30-70% and a 12 hr light/12 hr dark cycle. Animals were randomly assigned to their respective test group. This study was performed following the review by the Committee for Ethical Conduct in the Care and Use of Laboratory Animals of the Assaf Harofeh medical center, Beer Yaakov, Ethical Committee number: 68/2009.
For induction of EAE, rats were intradermally injected at the base of the tail with a total volume of 200 μl of inoculum containing 50 μg of MBP(63-81) (ANASPEC), in saline mixed (1:1) with CFA, (IFA, Sigma) and 1 mg Mt (strain H37 RA; Difco Laboratories, Detroit, Mich.).
The rats were evaluated up daily starting 24 hours after immunization. […]
7-10 days post EAE induction, 54 animals were divided to 9 groups (6 rats in each), and blood was collected from 2 rats of each group before the initiation of the treatment. […] The animals were maintained and evaluated until day 28th post EAE-induction. […]
Animals were observed individually and clinical signs were recorded once daily during all study periods. […] The body weight of each animals was determined daily during all study periods. […]

For “IFKLGGRDSRSGSPMARR [C-terminal fragment]”, the Kd [1] was 8.4 nM.

“MDHARHGFLPRH [biotinylated MBP fragment]” was tested, and the effective dissociation constant [1] was “not detectable”.

For “QDENPVVHFFKNIV [MBP encephalitogenic fragment]”, the Kd [1] was 9.6 nM.

With “GGDRGAPKRGSGKDSHH (MBP peptide) [MBP1, myelin basic protein fragment MBP(46-62), free un-encapsulated peptide]” the “mean disease score course (FIG. 4)” value ([2]; 6 daily s.c. injections from first clinical sign) was “did not provide any beneficial effects”, the Mortality ([2]; one s.c. injection per day, 6 injections, deaths/N) was 1/15 and the “Median Cumulative Disease Score” value ([2]; one s.c. injection per day, 6 injections, doses per Table 3) was 19.5. The “Median Maximal Disease Score (IQR)” value ([2]; one s.c. injection per day, 6 injections, doses per Table 3, score 0-5) was 3 (0.5)^2, the “Mortality Rate” value ([3]; 54 EAE induced DA rats, peptide dose 50 μg (mixtures 150 μg), deaths/N) was 1/6 and the “efficacy, overall disease score” value ([3]; comparison between groups) was “comparable”.

B1: full-length MBP protein: myelin basic protein, 18.5 kDa, 171 amino acids (protein)
chain: MASQKRPSQRHGSKYLATASTMDHARHGFLPRHRDTGILDSIGRFFGGDRGAPKRGSGKDSHHPARTAHYGSLPQKSHGRTQDENPVVHFFKNIVTPRTPPPSQGKGRGLSLSRFSWGAEGQRPGFGYGGRASDYKSAHKGFKGVDAQGTLSKIFKLGGRDSRSGSPMARR
modifications: MBP splice isoforms
notes: myelin basic protein, 18.5 kDa, 171 amino acids
For B1, the Kd [1] was 15 nM.
